From patent publication US11731964B2, “Benzamide antibacterial agents” (Purdue Research Foundation, priority 2018, dated 2023)
Converted amounts (≈) assume the structure as drawn. Read-outs that look alike come from different tables or passages of the source.

Assays:
Type in all cases: cell-based
[1] = tested on: L. monocytogenes ATCC 19115; experiment: MIC, broth microdilution; conditions: Listeria monocytogenes, ATCC19115; L. monocytogenes ATCC 19115; read-out: MIC
Method in brief: (§1)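 MIC = lowest concentration with no visual growth after ≥20 h at 37° C in 96-well broth culture (CA-MHB, BHI for E. faecium, or TSB by strain). MBC: 4 μL from no-growth wells spotted on TSA, incubated ≥18 h at 37° C.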

S. aureus ATCC 25923 = experiment: MIC, broth microdilution; conditions: Staphylococcus aureus, ATCC25923; S. aureus ATCC 25923; read-out: MIC
Method in brief: as §1

[2] = tested on: VRE (E. faecalis) ATCC 51575; experiment: MIC, broth microdilution; conditions: VRE (E. faecalis) ATCC 51575; read-out: MIC
Method in brief: as §1

[3] = tested on: Acinetobacter baumannii ATCC 19606; experiment: MIC against Gram-negative pathogens
Description: (§2) Bacteria were cultured in cation-adjusted Mueller Hinton Broth (for strains in Tables 1 and 4) or Brain Heart Infusion broth (for Enterococcus faecium) or Tryptic Soy Broth (all other bacteria) in a 96-well plate at 37° C. for at least 20 hours. The MIC was classified as the lowest concentration where no visual growth of bacteria was observed. The minimum bactericidal concentration (MBC) was tested by spotting 4 μL from wells with no growth onto Tryptic Soy Agar (TSA) plates. Plates were incubated at 37° C. for at least 18 hours before recording the MBC.

Escherichia coli BW25113 = experiment: MIC against Gram-negative pathogens; conditions: Escherichia coli BW25113 (wild-type); read-out: MIC
Description: as §2

[4] = tested on: Klebsiella pneumoniae BAA-1706; experiment: MIC against Gram-negative pathogens
Description: as §2

[5] = tested on: Pseudomonas aeruginosa ATCC 15442; experiment: MIC against Gram-negative pathogens
Description: as §2

[6] = tested on: Escherichia coli JW5503-1 (ΔtolC); experiment: MIC against Gram-negative pathogens (efflux pump knockout)
Description: as §2

CC1CC(C)CN(S(=O)(=O)c2ccc(C(=O)Nc3nnc(-c4cccs4)o3)cc2)C1 (centres unmarked) [Compound F6]
MIC [1]: 4 µg/mL (≈ 8.96 µM) | MIC (S. aureus ATCC 25923): 2 µg/mL (≈ 4.48 µM) | MIC [2]: 4 µg/mL (≈ 8.96 µM) | MIC [3]: not active | MIC ([3]; ATCC19606, read-out: MIC): 128 µg/mL (≈ 287 µM) | MIC (Escherichia coli BW25113): > 128 µg/mL | MIC [4]: not active | MIC ([4]; BAA1706, read-out: MIC): > 128 µg/mL | MIC [5]: not active | MIC ([5]; ATCC15442, read-out: MIC): > 128 µg/mL | MIC [6]: 2 µg/mL (≈ 4.48 µM)
